Assay results reported in patent US20240165066A1, “LYMPH-RELEASING COMPOSITIONS OF FATTY ACIDS AND USES THEREOF FOR LYMPHATIC INCORPORATION AND SYSTEMIC DISEASE TREATMENT” (Amarin Pharmaceuticals Ireland Limited, priority 2022, published 2024).

What was measured:
Type in all cases: cell-based
[1] = system: Human umbilical vein endothelial cells (HUVECs); assay: LC/MS proteomics of HUVECs treated with EPA or DHA and challenged with IL-6; details: for number of proteins whose expression was significantly repressed / number of proteins whose expression was significantly stimulated: compared with IL-6 alone
Method: Human umbilical vein endothelial cells (HUVECs) were isolated into primary cultures from female donors by Clonetics (San Diego, California) and purchased as proliferating cells. All cell culture donors were healthy, with no pregnancy or prenatal complications. The cultured cells were incubated in 95% air/5% CO2 at 37° C. and passaged by an enzymatic (trypsin) procedure. The confluent cells (4 to 5×10^5 cells/35 mm dish) were placed with minimum essential medium containing 3 mM L-arginine and 0.1 mM BH4 [(6R)-5,6,7,8-tetrahydrobiopterin]. Before experimental use, the cells (from second or third passage) were rinsed twice with Tyrode-HEPES buffer with 1.8 mM CaCl2).
EPA and DHA were purchased from Sigma-Aldrich (St. Louis, MO) and prepared initially in redistilled ethanol. Primary and secondary stock solutions were prepared and stored under nitrogen at −20° C.
HUVECs were treated with vehicle, EPA, or DHA (10 μM) for 2 hours, and then challenged with IL-6 (12 ng/mL) for 24 h hours. After incubation, cells were pelleted and frozen at −80° C. until proteomic analysis was performed.
Relative protein expression levels among the various treatments were measured using LC/MS proteomic techniques. Following protein digest, peptides are separated over a reverse phase column and then identified based on their mass.
Cell pellets were lysed using methanol/chloroform extraction. Proteins were denatured, reduced, alkylated, and trypsin digested. Samples were then prepared for Tandem Mass Tag (TMT) 10plex labeling. A bicinchoninic acid (BCA) assay was performed on each sample to quantify the total protein in each sample, which is important to confirm equal amounts of each sample are added to the multiplex sample. Each peptide in a sample was given a unique, low molecular weight (typically 126-130 Da), and then the samples were combined.
Each multiplexed sample was then fractionated to increase the overall protein coverage using high pH reversed phase fractionation and analyzed by LC/MS using a Dionex UltiMate 3000 RSLC in tandem with a Q-Exactive/Lumos Orbitrap Mass Spectrometer. The chromatography was performed using a 2-hour gradient on a Thermo Pepmap C18 column (100 Å pore size, 3.0 μm particle size, […]) set at 50° C. Mobile phase A was water with 0.1% formic acid, and mobile phase B was acetonitrile with 0.1% formic acid.
A bioinformatic package was applied to all the mass spectrometry intensity data known as Differential Enrichment analysis of Proteomics data (DEP) to process proteomic data (FIGS. 35-37).

[2] = system: Primary human lung microvascular endothelial cells (HMVEC-Ls, PECs); assay: LC/MS proteomics of pulmonary endothelial cells exposed to air pollution particulate matter
Method: Primary human lung microvascular endothelial cells (HMVEC-Ls, PECs) were purchased from Lonza (Manassas, VA). Cells were cultured in complete endothelial cell growth medium and maintained at 37° C. in a 95% air/5% CO2 humidified incubator. Cells were supplied with fresh medium every other day and propagated by an enzymatic (trypsin) procedure. Cell culture medium also contained 2% FBS to facilitate fatty acid treatment.
EPA was purchased from Sigma-Aldrich (Saint Louis, MO) and solubilized in redistilled ethanol under nitrogen atmosphere and stored at −20° C.
Urban air particulate matter and fine particulate matter were purchased from Sigma-Aldrich (SRM 1648a), catalog #: NIST1648a3110 and NIST27863110. The mean particle diameters were 5.85 and 2.8 μm, respectively.
PECs were pre-treated with EPA (40 μM) for 2 hours in 2% FBS-containing medium and then challenged with urban particulate matter (50 μg/mL) for 2 hours. After 2 hours, media was washed out and HBSS buffer was added. After incubation, cells were pelleted and frozen at −80° C. until proteomic analysis was performed. Relative protein expression levels among the various treatments were measured using LC/MS proteomic techniques (FIG. 40).
Cell pellets were lysed using methanol/chloroform extraction. Proteins were then denatured, reduced, alkylated, and trypsin digested. Samples were labeled by Tandem Mass Tag (TMT) 10plex labeling to multiplex the samples and ensure that the injection, LC, and MS conditions are identical for each sample. A bicinchoninic acid (BCA) assay was performed to quantify the total protein in each sample. Each peptide in a sample was given a unique, low molecular weight (typically 126-130 Da), and then the samples were combined.
Each multiplexed sample was then fractionated to increase the overall protein coverage using high pH reversed phase fractionation and analyzed by LC/MS using a Dionex UltiMate 3000 RSLC in tandem with a Q-Exactive/Lumos Orbitrap Mass Spectrometer.
A ComBat function was applied to all mass spectrometry intensity data to correct for batch effects. The bioinformatic package Differential Enrichment analysis of Proteomics data (DEP) was used to process proteomic data and generate the figures.

[3] = system: pulmonary endothelial cells; assay: IL-6 provoked-inflammation cell culture, proteomics; details: pulmonary endothelial cells provoked with IL-6
Text: (§1) FIG. 34B presents results from a provoked-inflammation cell-culture study with proteomics outcomes, wherein endothelial cells from various tissues were exposed to the inflammatory cytokine IL-6 in the absence or presence of EPA. […] Also of interest are related increases in proteins involved in the related antioxidant ferritin in vascular endothelial cells. Finally fatty acid desaturase 1 (FADS1) encodes the Δ5-desaturase enzyme and fatty acid desaturase 2 (FADS2) encodes the […] enzyme.
(§2) In a series of tissue culture experiments cells were provoked with IL-6 to induce an inflammatory and cellular injury response, and EPA added to determine whether it moderated proteins involved in injury responses. […] Thus, the proteomics results not only affirm the ability of EPA to promote HO-1, but also confirm the ability of EPA to inhibit […], corroborating the aforementioned ability of EtEPA to suppress the Δ5-desaturase index, for example.

brain endothelial cells = assay: as above; details: brain endothelial cells provoked with IL-6
Text: as §1, §2

[4] = system: vascular endothelial cells; assay: as above; details: vascular endothelial cells provoked with IL-6
Text: as §1, §2

[5] = 10 μM for 2 hours, then IL-6 (12 ng/mL) 24 h, vs IL-6 alone

CC/C=C\C/C=C\C/C=C\C/C=C\C/C=C\C/C=C\CCC(=O)O [DHA, docosahexaenoic acid]
GSR protein change [1, 5]: 1.2-fold increase, | PRDX1 protein change [1, 5]: 1.1-fold increase, | PRDX3 protein change [1, 5]: 1.1-fold increase, | PRDX4 protein change [1, 5]: 1.5-fold increase | PRDX5 protein change [1, 5]: 1.1-fold increase, | PRDX6 protein change [1, 5]: 1.3-fold decrease | TXN protein change [1, 5]: 1.2-fold increase, | number of proteins whose expression was significantly repressed [1]: 767 proteins | number of proteins whose expression was significantly stimulated [1]: 864 proteins

CC/C=C\C/C=C\C/C=C\C/C=C\C/C=C\CCCC(=O)O [EPA, eicosapentaenoic acid]
DDAH-1 protein change [1, 5]: 1.1-fold increase, | DDAH-2 protein change [1, 5]: 1.1-fold increase, | GSR protein change [1, 5]: 1.1-fold increase, | PRDX1 protein change [1, 5]: 1.1-fold increase, | PRDX2 protein change [1, 5]: 1.1-fold increase, | PRDX5 protein change [1, 5]: 1.1-fold increase, | TXN protein change [1, 5]: 1.2-fold increase, | number of proteins whose expression was significantly repressed [1]: 472 proteins | number of proteins whose expression was significantly stimulated [1]: 544 proteins | number of proteins with significantly modulated expression ([2]; EPA (40 μM) relative to fine PMs): 205 proteins | number of proteins with significantly modulated expression ([2]; EPA (40 μM) relative to urban PMs): 347 proteins | # of Proteins Decreased Expression by Treatment, Neutrophil Degranulation Pathway (GO: 0043312) ([2]; Fine PM vs EPA + Fine PM): 11 | # of Proteins Increased Expression by Treatment, Neutrophil Degranulation Pathway (GO: 0043312) ([2]; Fine PM vs EPA + Fine PM): 11 | # of Proteins Decreased Expression by Treatment, Neutrophil Degranulation Pathway (GO: 0043312) ([2]; Urban PM vs EPA + Urban PM): 19 | # of Proteins Increased Expression by Treatment, Neutrophil Degranulation Pathway (GO: 0043312) ([2]; Urban PM vs EPA + Urban PM): 16 | number of proteins associated with neutrophil degranulation modulated by EPA treatment ([2]; compared to fine PMs): 22 proteins | number of proteins associated with neutrophil degranulation modulated by EPA treatment ([2]; compared to urban PMs): 35 proteins | HO-1 protein, EPA+IL-6 vs IL-6 alone [3]: 1.9 fold | HO-1 protein, EPA+IL-6 vs IL-6 alone (brain endothelial cells): 1.5 fold | HO-1 protein, EPA+IL-6 vs IL-6 alone [4]: 2.2 fold
